Source: the supplement of paper PMC10627819

Columns and labels:
S. pneumoniae D39V [1] = assay: fitness (endpoint OD595 vs no drug) (fraction); higher = more growth
Outline: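 In 384-well plates at 37 °C, cultures began at OD595 0.01 in 30 µl, with 55 µl used for S. pneumoniae. OD595 readings every 30 min for 14 h were corrected by the first reading. Fitness divides the stationary-phase transition optical density by the robust mean of no-drug control wells. The result is capped at 1.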

B. subtilis 168 = assay: Bliss interaction score (quartile over a dose matrix) (fitness difference); higher = more antagonism (negative = synergy)
Outline: (§1)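 Values were capped at 1 after dividing OD595 at stationary-phase entry by the plate's robust no-drug mean. This ratio is fitness, and single-drug fitness was inferred from the combination data. The Bliss score is observed minus product-expected fitness, given as quartiles over technical, biological and donor/recipient replicates.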

S. aureus DSM 20231 = assay: as above
Outline: as §1

S. aureus Newman = assay: as above
Outline: as §1

S. pneumoniae D39V [2] = assay: as above
Outline: as §1
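Throughout, for Bliss interaction score (quartile over a dose matrix): first quartile when negative (synergy) and third quartile when positive (antagonism).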

CC1(C)S[C@@H]2[C@H](NC(=O)[C@H](N)c3ccc(O)cc3)C(=O)N2[C@H]1C(=O)O [Amoxicillin] + C[C@H]1COc2c(N3CCN(C)CC3)c(F)cc3c(=O)c(C(=O)O)cn1c23 [Levofloxacin]
fitness, S. pneumoniae D39V [1]
Conditions	partner 0.1725 µg/mL	partner 0.2 µg/mL	partner 0.345 µg/mL	partner 0.4 µg/mL	partner 0.69 µg/mL	partner 0.8 µg/mL
first compound 0.0008 µg/mL	0.955	–	0.911	–	0.591	–
first compound 0.0015 µg/mL	0.976	0.951	0.906	0.868	0.57	0.774
first compound 0.003 µg/mL	0.96	0.866	0.89	0.893	0.561	0.775

fitness, S. pneumoniae D39V [1], one replicate
Conditions	partner 0.2 µg/mL	partner 0.4 µg/mL	partner 0.8 µg/mL
first compound 0.0008 µg/mL	0.959	0.881	0.718
first compound 0.006 µg/mL	0.5	0.509	0.399

Conditions	Bliss interaction score
B. subtilis 168	0.0559
S. aureus DSM 20231	0.0396
S. aureus Newman	-0.0695
S. pneumoniae D39V [2]	0.142

CC1(C)S[C@@H]2[C@H](NC(=O)[C@H](N)c3ccc(O)cc3)C(=O)N2[C@H]1C(=O)O [Amoxicillin] + C[C@H]1c2cccc(O)c2C(=O)C2=C(O)[C@]3(O)C(=O)C(C(N)=O)=C(O)[C@@H](N(C)C)[C@@H]3[C@@H](O)[C@@H]21 [Doxycycline]
S. pneumoniae D39V [1], one replicate
Conditions	fitness
first compound 0.0008 µg/mL, partner 0.003875 µg/mL	0.967
first compound 0.0008 µg/mL, partner 0.00775 µg/mL	0.976
first compound 0.0015 µg/mL, partner 0.003875 µg/mL	0.961
first compound 0.0015 µg/mL, partner 0.00775 µg/mL	0.988
first compound 0.003 µg/mL, partner 0.003875 µg/mL	0.944
first compound 0.003 µg/mL, partner 0.00775 µg/mL	0.973
first compound 0.006 µg/mL, partner 0.0155 µg/mL	0.386
first compound 0.006 µg/mL, partner 0.031 µg/mL	0.421
first compound 0.006 µg/mL, partner 0.062 µg/mL	0.451

fitness, S. pneumoniae D39V [1]
Conditions	first compound 0.0008 µg/mL	first compound 0.0015 µg/mL	first compound 0.003 µg/mL
partner 0.0155 µg/mL	0.931	0.899	0.898
partner 0.031 µg/mL	0.853	0.86	0.903
partner 0.062 µg/mL	0.797	0.767	0.724

Conditions	Bliss interaction score
B. subtilis 168	0.136
S. aureus DSM 20231	-0.0671
S. aureus Newman	-0.0414
S. pneumoniae D39V [2]	0.151

CC1(C)S[C@@H]2[C@H](NC(=O)[C@H](N)c3ccc(O)cc3)C(=O)N2[C@H]1C(=O)O [Amoxicillin] + Clc1ccc(COC(Cn2ccnc2)c2ccc(Cl)cc2Cl)c(Cl)c1 [Miconazole]
fitness, S. pneumoniae D39V [1]
Conditions	partner 1.073 µg/mL	partner 1.25 µg/mL	partner 2.145 µg/mL	partner 2.5 µg/mL	partner 4.29 µg/mL	partner 5 µg/mL
first compound 0.0008 µg/mL	≥ 1	–	0.881	–	0.882	–
first compound 0.0015 µg/mL	≥ 1	0.781	0.948	0.831	0.848	0.906
first compound 0.003 µg/mL	0.994	0.736	0.778	0.814	0.739	0.849

fitness, S. pneumoniae D39V [1], one replicate
Conditions	partner 1.25 µg/mL	partner 2.5 µg/mL	partner 5 µg/mL
first compound 0.0008 µg/mL	0.89	0.799	0.987
first compound 0.006 µg/mL	0.355	0.264	0.395

Conditions	Bliss interaction score
B. subtilis 168	0.0957
S. aureus DSM 20231	0.0878
S. aureus Newman	0.0536
S. pneumoniae D39V [2]	-0.0912

CC1(C)S[C@@H]2[C@H](NC(=O)[C@H](N)c3ccc(O)cc3)C(=O)N2[C@H]1C(=O)O [Amoxicillin] + O=C1CN(/N=C/c2ccc([N+](=O)[O-])o2)C(=O)N1 [Nitrofurantoin]
fitness, S. pneumoniae D39V [1]
Conditions	partner 1.285 µg/mL	partner 2 µg/mL	partner 2.57 µg/mL	partner 4 µg/mL	partner 8 µg/mL
first compound 0.0008 µg/mL	≥ 1	–	0.957	–	–
first compound 0.0015 µg/mL	0.92	0.906	0.962	0.897	0.903
first compound 0.003 µg/mL	0.909	0.859	0.922	0.868	0.875

fitness, S. pneumoniae D39V [1], one replicate
Conditions	first compound 0.0008 µg/mL	first compound 0.0015 µg/mL	first compound 0.003 µg/mL	first compound 0.006 µg/mL
partner 2 µg/mL	0.93	–	–	0.43
partner 4 µg/mL	0.979	–	–	0.433
partner 5.14 µg/mL	0.928	0.921	0.857	–
partner 8 µg/mL	0.944	–	–	0.514

Conditions	Bliss interaction score
B. subtilis 168	-0.206
S. aureus DSM 20231	-0.0521
S. aureus Newman	0.0375
S. pneumoniae D39V [2]	0.11

CO/N=C(\C(=O)N[C@@H]1C(=O)N2C(C(=O)[O-])=C(C[N+]3(C)CCCC3)CS[C@H]12)c1csc(N)n1 [Cefepime] + CCC(C)C1C(=O)NC(=C)C(=O)NC(C(=O)NC(CSCC(C(=O)N1)NC(=O)/C(=C/C)/NC(=O)C(C(C)CC)N)C(=O)NC2C(SCC(NC(=O)CNC(=O)C3CCCN3C2=O)C(=O)NC(CCCCN)C(=O)NC4C(SCC(NC(=O)CNC(=O)C(NC(=O)C(NC(=O)C(NC(=O)CNC4=O)C)CC(C)C)CCSC)C(=O)NC(CC(=O)N)C(=O)NC(CCSC)C(=O)NC(CCCCN)C(=O)NC5C(SCC6C(=O)NC(C(=O)NC(CSC(C(C(=O)N6)NC(=O)C(NC5=O)C)C)C(=O)NC(CO)C(=O)NC(C(C)CC)C(=O)NC(CC7=CN=CN7)C(=O)NC(C(C)C)C(=O)NC(=C)C(=O)NC(CCCCN)C(=O)O)CC8=CN=CN8)C)C)C)CC(C)C [Nisin]
S. pneumoniae D39V [1], main component drawn
Conditions	fitness
first compound 0.007 µg/mL, partner 1.6 µg/mL	0.0039
first compound 0.007 µg/mL, partner 3.2 µg/mL	0.0024
first compound 0.007 µg/mL, partner 6.4 µg/mL	0.0023
first compound 0.0078 µg/mL, partner 0.4275 µg/mL	0.996
first compound 0.0078 µg/mL, partner 0.855 µg/mL	≥ 1
first compound 0.0078 µg/mL, partner 1.71 µg/mL	0.189
first compound 0.014 µg/mL, partner 1.6 µg/mL	0.0058
first compound 0.014 µg/mL, partner 3.2 µg/mL	0.0156
first compound 0.014 µg/mL, partner 6.4 µg/mL	0.0123
first compound 0.0155 µg/mL, partner 0.4275 µg/mL	0.996
first compound 0.0155 µg/mL, partner 0.855 µg/mL	0.974
first compound 0.0155 µg/mL, partner 1.71 µg/mL	0.126
first compound 0.028 µg/mL, partner 1.6 µg/mL	0.0484
first compound 0.028 µg/mL, partner 3.2 µg/mL	0.0251
first compound 0.028 µg/mL, partner 6.4 µg/mL	0.0152
first compound 0.031 µg/mL, partner 1.71 µg/mL	0.103

main component drawn
Conditions	Bliss interaction score
B. subtilis 168	-0.0465
S. aureus DSM 20231	-0.0745
S. aureus Newman	-0.0777
S. pneumoniae D39V [2]	-0.0526

CO/N=C(\C(=O)N[C@@H]1C(=O)N2C(C(=O)[O-])=C(C[N+]3(C)CCCC3)CS[C@H]12)c1csc(N)n1 [Cefepime] + CN(C)C(=O)C(CCN1CCC(O)(c2ccc(Cl)cc2)CC1)(c1ccccc1)c1ccccc1 [Loperamide]
S. pneumoniae D39V [1]
Conditions	fitness
first compound 0.007 µg/mL, partner 20 µg/mL	≥ 1
first compound 0.007 µg/mL, partner 40 µg/mL	≥ 1
first compound 0.007 µg/mL, partner 80 µg/mL	0.913
first compound 0.0078 µg/mL, partner 17.14 µg/mL	≥ 1
first compound 0.0078 µg/mL, partner 34.28 µg/mL	0.969
first compound 0.014 µg/mL, partner 20 µg/mL	≥ 1
first compound 0.014 µg/mL, partner 40 µg/mL	≥ 1
first compound 0.0155 µg/mL, partner 17.14 µg/mL	0.952
first compound 0.0155 µg/mL, partner 34.28 µg/mL	0.854
first compound 0.028 µg/mL, partner 20 µg/mL	0.911
first compound 0.028 µg/mL, partner 40 µg/mL	0.841

S. pneumoniae D39V [1], partner 68.57 µg/mL, one replicate
Conditions	fitness
first compound 0.0078 µg/mL	≥ 1
first compound 0.0155 µg/mL	≥ 1
first compound 0.031 µg/mL	0.48

Conditions	Bliss interaction score
B. subtilis 168	-0.171
S. aureus DSM 20231	0.156
S. aureus Newman	0.0533
S. pneumoniae D39V [2]	-0.0863

CO/N=C(\C(=O)N[C@@H]1C(=O)N2C(C(=O)[O-])=C(C[N+]3(C)CCCC3)CS[C@H]12)c1csc(N)n1 [Cefepime] + CO[C@H]1/C=C/O[C@@]2(C)Oc3c(C)c(O)c4c(O)c(c(/C=N/N5CCN(C)CC5)c(O)c4c3C2=O)NC(=O)/C(C)=C\C=C\[C@H](C)[C@H](O)[C@@H](C)[C@@H](O)[C@@H](C)[C@H](OC(C)=O)[C@@H]1C [Rifampicin]
fitness, S. pneumoniae D39V [1]
Conditions	first compound 0.007 µg/mL	first compound 0.014 µg/mL	first compound 0.0155 µg/mL	first compound 0.028 µg/mL	first compound 0.031 µg/mL
partner 0.025 µg/mL	≥ 1	0.992	–	0.93	–
partner 0.05 µg/mL	≥ 1	0.995	–	0.936	–
partner 0.1 µg/mL	0.477	0.47	0.325	0.222	0.208

fitness, S. pneumoniae D39V [1], one replicate
Conditions	first compound 0.0078 µg/mL	first compound 0.0155 µg/mL	first compound 0.031 µg/mL
partner 0.025 µg/mL	0.884	0.779	0.31
partner 0.2 µg/mL	0	0	0

Conditions	Bliss interaction score
B. subtilis 168	0.118
S. aureus DSM 20231	0.136
S. aureus Newman	0.035
S. pneumoniae D39V [2]	0.0513

CO/N=C(\C(=O)N[C@@H]1C(=O)N2C(C(=O)[O-])=C(C[N+]3(C)CCCC3)CS[C@H]12)c1csc(N)n1 [Cefepime] + C[C@@H](O)[C@H]1C(=O)N2C(C(=O)O)=C(SCCNC=N)C[C@H]12 [Imipenem]
fitness, S. pneumoniae D39V [1]
Conditions	first compound 0.007 µg/mL	first compound 0.0078 µg/mL	first compound 0.014 µg/mL	first compound 0.0155 µg/mL	first compound 0.028 µg/mL	first compound 0.031 µg/mL
partner 0.005 µg/mL	0.987	–	0.979	–	0.92	–
partner 0.0065 µg/mL	–	1	–	0.971	–	0.39
partner 0.01 µg/mL	0.984	–	≥ 1	–	0.902	–
partner 0.013 µg/mL	–	≥ 1	–	0.98	–	0.495
partner 0.02 µg/mL	0.986	–	0.991	–	0.881	–
partner 0.026 µg/mL	–	0.995	–	0.915	–	0.325

Conditions	Bliss interaction score
B. subtilis 168	-0.106
S. aureus DSM 20231	-0.0424
S. aureus Newman	0.155
S. pneumoniae D39V [2]	0.068

CO/N=C(\C(=O)N[C@@H]1C(=O)N2C(C(=O)[O-])=C(C[N+]3(C)CCCC3)CS[C@H]12)c1csc(N)n1 [Cefepime] + C[C@H]1COc2c(N3CCN(C)CC3)c(F)cc3c(=O)c(C(=O)O)cn1c23 [Levofloxacin]
fitness, S. pneumoniae D39V [1]
Conditions	partner 0.1725 µg/mL	partner 0.2 µg/mL	partner 0.345 µg/mL	partner 0.4 µg/mL	partner 0.69 µg/mL	partner 0.8 µg/mL
first compound 0.007 µg/mL	–	0.996	–	0.951	–	0.779
first compound 0.0078 µg/mL	0.991	–	0.937	–	0.727	–
first compound 0.014 µg/mL	–	0.993	–	0.963	–	0.768
first compound 0.0155 µg/mL	0.928	–	0.924	–	0.62	–
first compound 0.028 µg/mL	–	0.935	–	0.861	–	0.516

Conditions	Bliss interaction score
B. subtilis 168	0.0275
S. aureus DSM 20231	0.0646
S. aureus Newman	0.0639
S. pneumoniae D39V [2]	0.157
